Measurements from patent US8871794B2, “Small-molecule agonists for type-2 orexin receptor” (Board of Regents, The University of Texas System, priority 2008, dated 2014).
Read-outs that look alike come from different tables or passages of the source.

Legend:
[1] = Metabolism in mouse CD-1 S9 fractions (phase I, phase I+II); format: in vitro ADME; settings: for half-life at 2 μM: CD-1, mouse, S9 fractions (hepatocyte S9)
Method: Metabolism: 2 μM Yan7874 was incubated in 1 ml 0.1 M Tris/0.5% NaHCO3/3 mm MgCl2 solution with 1 mg mouse CD-1 S9 protein (In Vitro Technologies, Baltimore, Md.) at 37° C. Cofactors necessary for phase I and II metabolism were added as recommended by In Vitro Technologies (phase I: 1.7 mg/ml NADP, 7.8 mg/ml glucose-6-phophate, 6 U/ml glucose-6-phosphate dehydrogenase; phase II additionally add 1.9 mg/ml uridine 5′-diphospho-α-D-glucuronic acid and 100 μg/ml 3′-phosphoadenosine-5′-phophosulphate). Protein was precipitated by the addition of 1 volume of methanol. Samples in 50:50 buffer:methanol+0.1% added formic acid were analyzed as follows. An analytical method was developed to detect Yan7874 using LC/MS/MS. […] The fraction of parent compound remaining was plotted over time and a curve fit to the data. The time at which 50% of compound remains is designated the in vitro half-life.

[2] = IP pharmacokinetics in C57BL/6 mice (plasma and brain); format: in vivo, mouse; settings: for AUC / Clearance / Kp / Cmax / half-life: IP 20 mg/kg; for Kp: brain/plasma, ip, 20 mg/kg; for half-life: read-out: Terminal half life
Method: (§1) Pharmacokinetics: Methods: Chembridge Compound 6037874 (“Yan7874”) was provided as a powdered stock and dissolved in DMSO at 50 mg/ml. The compound was formulated as 5% DMSO/5% Cremaphor EL/90% 5% dextrose, pH 7.2 such that compound could be administered to mice at 10-20 mg/kg in a volume of 0.2 ml by IV bolus.
A second experiment was conducted using 24 C57BL/6 mice (NCI, male, 6 weeks of age). These mice were weighed and injected with 20 mg/kg of compound formulated as described above IP in 0.2 ml. […] The mice were sacrificed as above in groups of three by inhalation overdose of CO2 and blood and brain obtained and processed as above.
(§2) An analytical method was developed to detect Yan7874 using LC/MS/MS.
(§3) A standard curve was developed in plasma in the following manner. 100 μl of plasma is spiked with varying concentrations of Yan7874. The plasma is allowed to sit 10′ at room temperature after vortexing. 200 μl of acetonitrile is added to precipitate plasma proteins and release bound drug. After vortexing, the sample is incubated 10′ at room temperature. 700 μl of PBS is added and the sample is centrifuged at 14,000 rpm in a standard microcentrifuge for 5′. 900 μl of supernatant is added to 1 ml of PBS. The entire sample is passed over a Waters OASIS HLB solid phased extraction column already primed by addition of 2 ml methanol and 2 ml H2O. The column is washed once with 2 ml of 5% methanol/2% NH4OH in H2O and once with 2 ml of 5% methanol/2% acetic acid in H2O and compound is eluted by addition of 2 ml of methanol containing 2% NH4OH. 500 μl of this is added to 500 μl of H2O containing 0.2% formic acid (final formic acid 0.1%). Samples are prepared in the same manner without addition of spiked compound. Brain tissue is prepared by homogenizing in 3× volume of PBS (weight in grams×3=volume in ml to add). 100 μl of blank brain lysate is used for preparation of standard curve samples while 100 μl of sample brain lysate is used for preparation of samples. To calculate brain levels, the concentration in ng/ml calculated from the standard curve is multiplied by the total volume of lysate (a value in ml estimated from the 3× volume of PBS added +1× volume to account for brain tissue itself) and then divided by the weight of the brain in grams. A value of 3× above the signal obtained from blank plasma or brain lysate is designated the limit of detection (LOD). The LOD for plasma is 2640 and for brain 459. The limit of quantitation (LOQ) is the lowest concentration at which back calculation yields a concentration within 20% of theoretical. The LOQ for both plasma and brain is 5 ng/ml. In general back calculation of points on both curves yielded values within 20% of theoretical over 4 orders of magnitude (10,000 to 5 ng/ml) for both sample types.

[3] = IV pharmacokinetics in C57BL/6 mice (plasma and brain); format: in vivo, mouse; settings: for Kp: brain/plasma, 10 mg/kg; for half-life: read-out: Terminal half life
Method: as §1
The mice were sacrificed in groups of three by inhalation overdose of CO2 and blood and brain obtained. Plasma was subsequently isolated from the […] by centrifugation in a refrigerated microcentrifuge at 10,000 rpm for 10′. The brain was washed extensively with PBS, blotted dry, weighed, and snap frozen in liquid nitrogen.
as §2, §3

No Receptor_CRE = assay: CRE reporter assay, no receptor control; format: cell-based
[4] = male, C57BL/6, mouse, IV 10 mg/kg, brain
[5] = male, C57BL/6, mouse, IV 10 mg/kg, plasma

Cc1ccc(Cn2c(=N)n(CC(O)c3ccc(Cl)c(Cl)c3)c3ccccc32)cc1 (centres unmarked) [Compound 130699]
stability in vitro using hepatocyte S9 fractions ([1]; 2 μM, mouse CD-1 S9, 37° C.): relatively stable | half-life at 2 μM ([1]; Phase I+II, read-out: half-life for in vitro combined Phase I+II metabolism in S9 fractions): 56 min | half-life at 2 μM ([1]; Phase I, read-out: half-life for in vitro Phase I metabolism in S9 fractions): 68 min | acute reaction after injection ([2]; 20 mg/kg IP): no acute reactions were noted | AUC ([2]; brain): 133,194 min*ng/g | Clearance ([2]; brain): 2.9 g/min | Clearance ([2]; plasma): 2.7 mL/min | Kp ([2]; male, C57BL/6, mouse, read-out: Blood Brain Penetration Ratio: AUC brain/AUC plasma): 0.9 | Kp ([2]; male, C57BL/6, mouse, read-out: Blood Brain Penetration Ratio: Cmax brain/Cmax plasma): 0.3 | Cmax ([2]; male, C57BL/6, mouse, brain): 337 ng/g | half-life ([2]; male, C57BL/6, mouse, brain): 204 min | Cmax ([2]; male, C57BL/6, mouse, plasma): 1080 ng/mL | AUC ([2]; male, C57BL/6, mouse, plasma, read-out: AUC (converted)): 2400 ng·h/mL | half-life ([2]; male, C57BL/6, mouse, plasma): 165 min | acute reaction after injection ([3]; 10 mg/kg IV): no acute reactions were noted | time after dosing at which peak brain levels achieved ([3]; 10 mg/kg iv): 30 min | peak levels in brain tissue ([3]; 10 mg/kg iv, 30 minutes after dosing): ~2.5 µg/g | brain penetration ([3]; 10 mg/kg iv, mice): good brain penetration | acute reaction after injection ([3]; 20 mg/kg IV, first two mice): relatively severe reaction marked by a mild seizure and reduced activity for several hours | AUC ([3]; IV 10 mg/kg, brain): 485,627 min*ng/g | Clearance ([3]; IV 10 mg/kg, brain): 0.4 g/min | Kp ([3]; male, C57BL/6, mouse, intravenous, 10 mg/kg iv, read-out: peak brain concentrations relative to peak levels in plasma): ~5 | Kp ([3]; male, C57BL/6, mouse, iv, IV 10 mg/kg, read-out: Blood Brain Penetration Ratio: AUC brain/AUC plasma): 5.2 | Kp ([3]; male, C57BL/6, mouse, iv, IV 10 mg/kg, read-out: Blood Brain Penetration Ratio: Cmax brain/Cmax plasma): 4.8 | concentration at 24 h ([3]; male, C57BL/6, mouse, brain, 10 mg/kg iv, 24 hours, read-out: brain levels persisting at 24 hours post-injection): 5 ng/g | Cmax [3, 4]: 2480 ng/g | half-life [3, 4]: 188 min | Cmax [3, 5]: 512 ng/mL | AUC ([3]; male, C57BL/6, mouse, IV 10 mg/kg, plasma, read-out: AUC (area under the concentration-time curve) (converted)): 1530 ng·h/mL | Clearance ([3]; male, C57BL/6, mouse, IV 10 mg/kg, plasma, read-out: Clearance): 2.1 mL/min | half-life [3, 5]: 91.3 min | Fold Induction, No Receptor_CRE (No Receptor_CRE): 0.797
